In patent US5506102A (priority 1993, dated 1996):

Assays:
PR-A = molecular target: T1, PR-A (Homo sapiens, UniProt P06401); test: PR-A transactivation of PRE2 tk-LUC; assay type: cell-based; design: PRE2 tk-LUC in CV-1
T1 sequence (P06401 165-933): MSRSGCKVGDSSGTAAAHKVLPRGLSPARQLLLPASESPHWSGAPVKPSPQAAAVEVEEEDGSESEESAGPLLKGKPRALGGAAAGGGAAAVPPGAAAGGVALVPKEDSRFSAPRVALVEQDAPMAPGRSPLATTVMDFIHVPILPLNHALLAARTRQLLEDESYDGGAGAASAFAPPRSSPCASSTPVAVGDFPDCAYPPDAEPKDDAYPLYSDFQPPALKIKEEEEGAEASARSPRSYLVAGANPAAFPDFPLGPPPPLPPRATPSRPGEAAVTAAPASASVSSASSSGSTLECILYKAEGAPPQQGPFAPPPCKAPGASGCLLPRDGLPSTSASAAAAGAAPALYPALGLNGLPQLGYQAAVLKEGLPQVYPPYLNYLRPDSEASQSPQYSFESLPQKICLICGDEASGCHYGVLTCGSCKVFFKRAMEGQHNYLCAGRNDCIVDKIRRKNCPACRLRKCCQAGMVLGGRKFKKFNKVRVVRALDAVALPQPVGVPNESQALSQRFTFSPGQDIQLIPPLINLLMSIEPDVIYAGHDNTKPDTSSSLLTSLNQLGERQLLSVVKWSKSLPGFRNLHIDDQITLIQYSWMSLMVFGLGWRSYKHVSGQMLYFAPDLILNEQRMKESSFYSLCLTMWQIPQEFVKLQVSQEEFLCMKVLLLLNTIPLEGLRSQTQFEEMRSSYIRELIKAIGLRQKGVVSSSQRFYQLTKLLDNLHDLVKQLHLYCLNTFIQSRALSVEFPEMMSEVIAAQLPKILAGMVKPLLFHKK
Protocol: FIGS. 4A-4B are a series of graphs showing CV-1 ([…]) or HepG2 (FIG. 4B) cells that were transiently transfected with either […] of phPR-B or phPR-A alone, or phPR-B in the presence of increasing concentrations of phPR-A, together with 5 µg/ml of the PRE2 tk-LUC reporter and 5 µg/ml of pCH110 as an internal control. HeLa cells (FIG. 4C) were transfected with either phPR-B or phPR-A together with 5 µg/ml of the pTAT2950 reporter and 5 µg/ml of pCH110 as an internal control. […] The relative luciferase activity is calculated by dividing the normalized luciferase value at a given point by that obtained in the absence of transfected receptor or ligand. The data shown represent the mean +/- average deviation from the mean of triplicate estimations;
Both reporter plasmids were digested with XhoI and HindIII restriction enzymes and a 6.7 Kb fragment from MMTV-LUC and a 0.12 Kb fragment from PRE2 tk-CAT were isolated and ligated, resulting in a plasmid called PRE2 tk-LUC.
Cells were seeded in 12-well, 96-well or 10 cm tissue culture plates. […] 20 μg of DNA/ml of transfection buffer were used in each transfection reaction. […]

human estrogen receptor = test: ER transcriptional activity on MMTV-ERE-LUC, CV-1 cells, ER co-expressed with PR-B; assay type: cell-based; details: 10^-7 M 17β-estradiol, FIG. 11D
Protocol: All values were normalized for transfection efficiency by simultaneous estimation of luciferase and β-galactocidase activities. The relative luciferase activity is calculated by dividing the normalized luciferase value at a given point by that obtained in the absence of transfected receptor or ligand. Data shown represent the mean +/- the average deviation from the mean of triplicate estimations.
Vegeto et al., supra. Cells were plated into 96-well tissue culture plates. The vector DNA was introduced into the CV-1 cells using calcium phosphate coprecipitation as described herein. More specifically, 20 μg of DNA/ml of transfection buffer were used in each transfection. Each transfection mix included 0.5 μg of pRST7hER, 9.5 μg of MMTV-ERE-LUC, 5 μg of pCH110, (which contains the gene for β-galactosidase) as an internal control and 5 μg of PGEM4 DNA as a carrier. […] The concentration of pXVhPR-A vector chosen was determined by performing the experiment at several different concentrations of vector, and then using that concentration that was optimal for transcriptional readout. […] The Normalized LUC activity was calculated by dividing the raw luciferase (×10^4) units for each point by the β-galactosidase activity [(OD415 nm ×10^5)/time min.] at that point.

CC(=O)[C@H]1CC[C@H]2[C@@H]3CCC4=CC(=O)CC[C@]4(C)[C@H]3CC[C@]12C [progesterone]
PR-A transcriptional activity on PRE2 tk-LUC (PR-A; CV-1, 10^-7 M progesterone, FIG. 4A): transcriptionally inactive
PR-A transcriptional activity on PRE2 tk-LUC (PR-A; HepG2, 10^-7 M progesterone, FIG. 4B): activator of transcription
inhibition of ER function with hPR-B (human estrogen receptor): hPR-B will not inhibit
